Assay results from ChEMBL document CHEMBL1201862, “PubChem BioAssay data set” (2004).
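Assay format: 96-well plates, 48-hour exposure. At the GI50, growth is halved.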 Calls of active or inactive are those of the source. Cut-off read from the data, not from the text of the source: active = GI50 up to about 1.1 µM and inactive = higher.

What was measured:
Assay in all cases: NCI tumour cell line growth inhibition, 48 h
ACHN = tested on: ACHN
CCRF-CEM = tested on: CCRF-CEM
COLO 205 = tested on: COLO 205
EKVX = tested on: EKVX
HCT-116 = tested on: HCT-116
HL-60 = tested on: HL-60
HT-29 = tested on: HT-29
LOX IMVI = tested on: LOX IMVI
NCI-H23 = tested on: NCI-H23
NCI-H460 = tested on: NCI-H460
OVCAR-4 = tested on: OVCAR-4
OVCAR-5 = tested on: OVCAR-5
SW-620 = tested on: SW-620
U-251 = tested on: U-251
UACC-62 = tested on: UACC-62
SK-MEL-28 = tested on: SK-MEL-28
SR = tested on: SR
HOP-92 = tested on: HOP-92

Measured: GI50

CC1(C)C2CCC13C(=O)C1OC3(C2)C2C(=O)N(c3ccccc3)C(=O)C12 (stereo unspecified)
inactive: ACHN > 100 µM | CCRF-CEM > 100 µM | COLO 205 > 100 µM | EKVX > 100 µM | HCT-116 > 100 µM | HL-60 > 100 µM | HT-29 51.4 µM | LOX IMVI > 100 µM | NCI-H23 38.1 µM | NCI-H460 > 100 µM | OVCAR-4 > 100 µM | OVCAR-5 > 100 µM | SW-620 > 100 µM | U-251 > 100 µM | UACC-62 > 100 µM

CC(C)(C)c1ccccc1NS(=O)(=O)c1ccccc1
inactive: ACHN > 100 µM | CCRF-CEM 62.1 µM | EKVX > 100 µM | HCT-116 48 µM | HL-60 36.9 µM | HT-29 66.7 µM | NCI-H23 > 100 µM | NCI-H460 92 µM | OVCAR-4 62.4 µM | OVCAR-5 > 100 µM | SK-MEL-28 > 100 µM | SW-620 > 100 µM | U-251 > 100 µM | UACC-62 > 100 µM

Nc1nc(-c2ccco2)cc(-c2ccco2)n1
inactive: ACHN > 100 µM | CCRF-CEM > 100 µM | COLO 205 > 100 µM | EKVX > 100 µM | HCT-116 > 100 µM | HL-60 > 100 µM | HT-29 > 100 µM | LOX IMVI > 100 µM | NCI-H23 > 100 µM | NCI-H460 > 100 µM | OVCAR-4 > 100 µM | OVCAR-5 > 100 µM | SK-MEL-28 > 100 µM | SR > 100 µM | SW-620 > 100 µM | U-251 > 100 µM | UACC-62 > 100 µM

N/N=C1\c2ccccc2C2/C(=N\N)c3ccccc3C12 (stereo unspecified)
inactive: ACHN > 100 µM | CCRF-CEM > 100 µM | COLO 205 > 100 µM | EKVX > 100 µM | HL-60 > 100 µM | HOP-92 > 100 µM | HT-29 > 100 µM | LOX IMVI > 100 µM | NCI-H23 > 100 µM | NCI-H460 > 100 µM | OVCAR-4 > 100 µM | OVCAR-5 > 100 µM | SK-MEL-28 > 100 µM | SW-620 > 100 µM | U-251 > 100 µM | UACC-62 > 100 µM

CCC(C)CNC1=C(NC(C)=O)C(=O)c2ccccc2C1=O (stereo unspecified)
inactive: ACHN > 100 µM | CCRF-CEM > 100 µM | COLO 205 78.9 µM | EKVX > 100 µM | HCT-116 > 100 µM | HL-60 > 100 µM | HT-29 > 100 µM | LOX IMVI > 100 µM | NCI-H23 67.8 µM | NCI-H460 94.6 µM | OVCAR-4 > 100 µM | SK-MEL-28 > 100 µM | SR > 100 µM | SW-620 > 100 µM | U-251 > 100 µM | UACC-62 > 100 µM

CCCCCC[C@H]1CC(=O)C2CCCC[C@@]23CC[C@H](CCl)N13.CCCCCC[C@H]1CC(=O)C2CCCC[C@@]23C[C@H](Cl)CN13 (stereo partly specified)
inactive: ACHN 53.5 µM | CCRF-CEM 33.2 µM | COLO 205 10 µM | EKVX 49.9 µM | HCT-116 51.9 µM | HL-60 21.8 µM | HOP-92 24.2 µM | HT-29 61.9 µM | NCI-H23 47.5 µM | NCI-H460 98.2 µM | OVCAR-4 40.2 µM | OVCAR-5 > 100 µM | SK-MEL-28 38.1 µM | U-251 29.6 µM | UACC-62 48.1 µM

N#CCCN(CCC#N)c1ccc(/C=C2\N=C(COc3ccc(Cl)cc3Cl)OC2=O)cc1
inactive: CCRF-CEM > 100 µM | COLO 205 > 100 µM | EKVX > 100 µM | HCT-116 > 100 µM | HL-60 > 100 µM | HT-29 > 100 µM | LOX IMVI > 100 µM | NCI-H23 > 100 µM | NCI-H460 > 100 µM | OVCAR-4 > 100 µM | OVCAR-5 > 100 µM | SK-MEL-28 > 100 µM | SW-620 > 100 µM | U-251 > 100 µM | UACC-62 > 100 µM

CC(NC(=O)C(N)CC(=O)O)C(=O)OC12CC3CC(CC(C3)C1)C2 (stereo unspecified)
inactive: ACHN > 100 µM | CCRF-CEM > 100 µM | COLO 205 > 100 µM | EKVX > 100 µM | HCT-116 > 100 µM | HOP-92 > 100 µM | HT-29 > 100 µM | LOX IMVI > 100 µM | NCI-H23 > 100 µM | NCI-H460 > 100 µM | OVCAR-4 > 100 µM | OVCAR-5 > 100 µM | SK-MEL-28 > 100 µM | SR > 100 µM | SW-620 > 100 µM | U-251 > 100 µM | UACC-62 > 100 µM

CCOc1ccccc1/N=N/c1ccc2oc(=O)c(C(=O)Nc3cccc(C)c3)cc2c1
inactive: CCRF-CEM 18.7 µM | COLO 205 26.7 µM | EKVX 25.7 µM | HCT-116 20.2 µM | HL-60 10.2 µM | HT-29 36.2 µM | LOX IMVI 14.7 µM | NCI-H23 21.4 µM | OVCAR-4 28.6 µM | OVCAR-5 > 100 µM | SK-MEL-28 26 µM | SW-620 31.3 µM | U-251 25.6 µM | UACC-62 26.2 µM

O=C1c2c(c3c4ccccc4[nH]c3c3[nH]c4ccccc4c23)C(=O)N1Cc1ccccc1
inactive: ACHN 2.87 µM | CCRF-CEM 2.96 µM | COLO 205 2.2 µM | EKVX 5.93 µM | HCT-116 2.74 µM | HOP-92 2.43 µM | HT-29 4.04 µM | LOX IMVI 2.44 µM | NCI-H23 2.08 µM | NCI-H460 3.3 µM | OVCAR-4 3.06 µM | OVCAR-5 2.62 µM | SK-MEL-28 2.89 µM | SW-620 3.7 µM | U-251 2.33 µM | UACC-62 4.25 µM

C[C@@H]1C[C@]2(C[C@@H](C)C3[C@@H](CC4(C)[C@@H]5CCC6C(C)(C)OC(=O)C=C[C@]67C[C@@]5(CC[C@]34C)OO7)O2)OC1=O (stereo partly specified)
inactive: ACHN 92.5 µM | COLO 205 > 100 µM | HCT-116 61.5 µM | HL-60 46.2 µM | HT-29 > 100 µM | LOX IMVI 44.2 µM | NCI-H23 > 100 µM | NCI-H460 86.7 µM | OVCAR-4 24.8 µM | OVCAR-5 > 100 µM | SK-MEL-28 66.7 µM | SR > 100 µM | SW-620 84.3 µM | U-251 73.3 µM | UACC-62 21.2 µM

Oc1c2c(nc3cc4c(cc13)OCO4)-c1ccccc1CC2
inactive: ACHN > 100 µM | CCRF-CEM > 100 µM | COLO 205 > 100 µM | EKVX > 100 µM | HCT-116 > 100 µM | HL-60 > 100 µM | HT-29 > 100 µM | LOX IMVI > 100 µM | NCI-H23 > 100 µM | NCI-H460 > 100 µM | OVCAR-4 > 100 µM | SK-MEL-28 > 100 µM | SR > 100 µM | SW-620 > 100 µM | U-251 > 100 µM | UACC-62 > 100 µM
